This assay concerns the target T1, chicken gizzard smooth muscle myosin subfragment-1 chemically crosslinked to cardiac or skeletal actin (Gallus gallus, UniProt P10587).
T1 construct: chicken gizzard smooth muscle myosin subfragment-1; from tissue; host or cells: chicken gizzard
The assay can be described thus: Smooth muscle myosin ATPase dose response assay (pyruvate kinase/horseradish peroxidase/pyruvate oxidase-coupled, amplex red fluorescence). The format is biochemical. The settings on record: read-out: IC50 Arithmetic Mean. The method, boiled down: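 Amplex red fluorescence (480 nm excitation, 615 nm emission) tracked ATP hydrolysis by smooth muscle S1 crosslinked to actin with carbodiimide/N-hydroxysuccinimide. Reactions contained 0.15 mM ATP and 100 mM KCl at pH 7.00, 22° C. IC50 came from a four-parameter logistic fit.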
T1 sequence (P02607 2-151): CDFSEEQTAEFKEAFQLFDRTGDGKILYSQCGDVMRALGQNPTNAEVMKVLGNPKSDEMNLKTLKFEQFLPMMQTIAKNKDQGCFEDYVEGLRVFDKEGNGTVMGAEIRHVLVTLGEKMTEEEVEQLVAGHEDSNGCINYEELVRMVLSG
T1 sequence (P10587 84-789): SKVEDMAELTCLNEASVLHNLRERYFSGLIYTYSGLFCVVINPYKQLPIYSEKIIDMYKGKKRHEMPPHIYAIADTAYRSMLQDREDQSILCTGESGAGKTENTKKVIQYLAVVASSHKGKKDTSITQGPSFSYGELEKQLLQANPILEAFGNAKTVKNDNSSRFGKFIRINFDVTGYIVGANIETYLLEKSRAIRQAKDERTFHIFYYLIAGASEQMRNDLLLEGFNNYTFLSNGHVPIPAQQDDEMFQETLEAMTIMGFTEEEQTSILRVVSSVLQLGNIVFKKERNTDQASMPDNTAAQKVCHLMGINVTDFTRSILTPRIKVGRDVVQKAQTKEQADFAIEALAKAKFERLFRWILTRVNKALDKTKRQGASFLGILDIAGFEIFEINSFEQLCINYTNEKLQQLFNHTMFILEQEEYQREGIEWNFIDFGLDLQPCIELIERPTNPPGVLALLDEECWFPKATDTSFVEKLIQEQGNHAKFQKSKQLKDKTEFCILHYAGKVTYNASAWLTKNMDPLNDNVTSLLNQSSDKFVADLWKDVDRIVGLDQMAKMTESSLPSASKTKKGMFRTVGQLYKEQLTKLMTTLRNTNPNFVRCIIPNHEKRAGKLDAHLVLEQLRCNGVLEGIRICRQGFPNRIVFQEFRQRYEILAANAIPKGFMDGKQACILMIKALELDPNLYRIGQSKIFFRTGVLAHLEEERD
As to `CS(=O)(=O)N1CC[C@@H]1CNC(=O)c1ccc(-c2ccccc2C#N)nc1NCCc1cccc(F)c1` [N-{[(2R)-1-(methylsulfonyl)azetidin-2-yl]methyl}(6-(2-cyanophenyl)-2-{[2-(3-fluorophenyl)ethyl]amino}(3-pyridyl))carboxamide], the IC50 (as a rule, the concentration needed to halve the response being measured) was determined as 1520 nM. The result for `N#Cc1ccccc1-c1ccc(C(=O)NCC2CCCN(CCO)C2=O)c(NCCc2cccc(F)c2)n1` (stereo not shown) [(6-(2-cyanophenyl)-2-{[2-(3-fluorophenyl)ethyl]amino}(3-pyridyl))-N-{[1-(2-hydroxyethyl)-2-oxo(3-piperidyl)]methyl}carboxamide] reads 59 nM. The result for `CC(C)(C)OC(=O)N1CC[C@@H]1CNC(=O)c1cc(F)c(-c2cn[nH]c2)nc1NCCc1cccc(F)c1` [tert-butyl (2R)-2-{[(5-fluoro-2-{[2-(3-fluorophenyl)ethyl]amino}-6-pyrazol-4-yl(3-pyridyl))carbonylamino]methyl}azetidinecarboxylate] reads 289 nM; that for `COCCCNC(=O)c1ccc(-c2ccccc2C#N)nc1NCCc1cccc(F)c1` [(6-(2-cyanophenyl)-2-{[2-(3-fluorophenyl)ethyl]amino}(3-pyridyl))-N-(3-methoxypropyl)carboxamide], 396 nM. `CNC(=O)[C@H](CNC(=O)c1ccc(-c2ccccc2C#N)nc1NCCc1cccc(F)c1)NC(C)=O` [(2S)-2-(acetylamino)-3-[(6-(2-cyanophenyl)-2-{[2-(3-fluorophenyl)ethyl]amino}(3-pyridyl))carbonylamino]-N-methylpropanamide]: the IC50 came to 5550 nM. Consider `CC(=O)N1CCC(CNC(=O)c2ccc(-c3ccccc3C#N)nc2NCCc2cccc(F)c2)C1` (stereo not shown) [N-[(1-acetylpyrrolidin-3-yl)methyl](6-(2-cyanophenyl)-2-{[2-(3-fluorophenyl)ethyl]amino}(3-pyridyl))carboxamide], for which the IC50 came out at 334 nM. Then `O=C(NC[C@H]1CCN1)c1ccc(-c2cn[nH]c2)nc1NCCc1cccc(F)c1` [N-[((2R)azetidin-2-yl)methyl](2-{[2-(3-fluorophenyl)ethyl]amino}-6-pyrazol-4-yl(3-pyridyl))carboxamide], with 5440 nM; and `N#Cc1ccccc1-c1ccc(CC(=O)NCc2cccnc2)c(NCCc2cccc(F)c2)n1` [2-(6-(2-cyanophenyl)-2-{[2-(3-fluorophenyl)ethyl]amino}(3-pyridyl))-N-(3-pyridylmethyl)acetamide], with 13200 nM. The result for `Cn1cc(-c2ccc(C(=O)NCc3ccn(CCCN)n3)c(NCCc3cccc(F)c3)n2)cn1` [N-{[1-(3-aminopropyl)pyrazol-3-yl]methyl}(2-{[2-(3-fluorophenyl)ethyl]amino}-6-(1-methylpyrazol-4-yl)(3-pyridyl))carboxamide] reads 2690 nM. The result for `Cn1cc(-c2ccc(C(=O)NCc3cccnc3)c(NCCc3cccc(F)c3)n2)c(C#N)n1` [(6-(3-cyano-1-methylpyrazol-4-yl)-2-{[2-(3-fluorophenyl)ethyl]amino}(3-pyridyl))-N-(3-pyridylmethyl)carboxamide] reads 47 nM; that for `Cc1cc(C(=O)NC[C@H]2CCC(=O)N2CCCNC(=O)OC(C)(C)C)c(NCCc2cccc(F)c2)nc1-c1ccccc1C#N` [N-[3-((5R)-5-{[(6-(2-cyanophenyl)-2-{[2-(3-fluorophenyl)ethyl]amino}-5-methyl(3-pyridyl))carbonylamino]methyl}-2-oxopyrrolidinyl)propyl](tert-butoxy)carboxamide], 5370 nM.

For `O=C(NC[C@H]1CCCN1)c1ccc(-c2cn[nH]c2)nc1NCCc1cccc(F)c1` [N-[((2R)pyrrolidin-2-yl)methyl](2-{[2-(3-fluorophenyl)ethyl]amino}-6-pyrazol-4-yl(3-pyridyl))carboxamide], the 50% inhibitory concentration (IC50) was 4750 nM. The result for `O=C(O)c1ccc(-c2ccc(C(=O)NCc3cccnc3)c(NCCc3ccccn3)n2)cc1` [4-{6-[(2-(2-pyridyl)ethyl)amino]-5-[N-(3-pyridylmethyl)carbamoyl]-2-pyridyl}benzoic acid] reads 18300 nM.

For the origin of these results see patent publication US7932270B2 (Cytokinetics, Inc., priority 2006, dated 2011).
